Laboratory results as given in US9469627B2, “Phenyloxadiazole derivatives as PGDS inhibitors” (Sanofi, priority 2009, dated 2016).

How the values were obtained:
[1] = biological target: human h-PGDS (Homo sapiens (Human), UniProt O60760); assay: Enzyme Immunoassay (EIA) method for inhibition of hematopoietic PGD2 synthase; assay type: biochemical; conditions: PGD2 formed from PGH2, measured by EIA; read-out: hPGDS EIA IC50
Description: The compounds of the present invention can be tested for enzymatic inhibiting activity against PGD2 Synthase according to either one of the following assays.
Assay 2: Enzyme Immunoassay (EIA) Method
• a. Preparation of 0.1M K2HPO4/KH2PO4 buffer (pH 7.4) • Prepare 0.1 M KH2PO4 from 1M KH2PO4 (Sigma, Cat# P-8709) • Prepare 0.1 M K2HPO4 from powder of K2HPO4 (Fisher, BP363-500) • Mix 0.1 M K2HPO4 with 0.1 M KH2PO4 to adjust pH to 7.4. • b. Preparation of 0.5% γ-globulin • Add 0.1 g of γ-globulin (Sigma, Cat# G-5009) to 20 mL 0.1 M K2HPO4/KH2PO4 buffer (pH 7.4) and make 1-mL/vial aliquots and store in −80° C. • c. Preparation of 100 mM GSH • Add 307 mg of GSH (Sigma, Cat# G-6529) to 10 mL 0.1 M K2HPO4/KH2PO4 buffer (pH 7.4) and store at −80° C. • d. Preparation of Reaction buffer: • 198 mL of 0.1M K2HPO4/KH2PO4 buffer (pH 7.4) • 2 mM GSH—Prepared from 100 mM GSH • 0.4 g Glycerol • 2 mL of 0.5% γ-globulin • Add 0.4 g of glycerol and 2 mL of 0.5% γ-globulin to 198 mL of 0.1 M K2HPO4/KH2PO4 • buffer (pH7.4). • Add 0.4 mL of 100 mM GSH to 19.6 mL reaction buffer before the assay (enough for two 96-well plates). • e. Preparation of FeCl2/citric acid stopping solution: (8 mg/mL FeCl2, 0.1 M citric acid) • Add 40 mg fresh FeCl2 (IGN, Cat#158046) to 5 mL 0.1 M citric acid (Sigma, Cat# C0759). • f. Preparation of MOX reagent: • 10% EtOH—Add 1 mL of EtOH to 9 mL of ultra pure H2O • Dissolve 0.1 g of methoxylamine (Cayman, Cat#400036/) in 10% EtOH (10 mL). • Add 0.82 g of sodium acetate (Cayman, Cat#400037) to MOX solution and dissolve. II. Materials and Method • Dimethylsulfoxide (DMSO; Sigma; Cat# D2650) • Prostaglandin D2-MOX express EIA kit (Caymen Chemical, Catalog No. 500151)
Before the assay, cool down 10 mL of acetone in polypropylene tubes and empty 96 well plates in ice. All the procedures except compound dilution are performed on ice.
• 1. Dilute compound in DMSO
• 2. […] Total PGD2 levels (pg/mL) were determined in the samples by EIA kits (Cayman Chemical, Catalog No. 500151) • Calculate amount of PGD2 as below • Calculated % Positive control according to the equation below; […]

[2] = Solid solubility (solidsol); assay type: physicochemical

Chain of human h-PGDS (O60760 whole entry): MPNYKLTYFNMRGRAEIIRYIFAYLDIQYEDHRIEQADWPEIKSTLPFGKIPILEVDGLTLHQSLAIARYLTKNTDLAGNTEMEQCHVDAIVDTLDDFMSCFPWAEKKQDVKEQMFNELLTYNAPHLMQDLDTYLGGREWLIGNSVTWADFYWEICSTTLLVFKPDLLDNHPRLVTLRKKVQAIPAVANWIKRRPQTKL

Row | IC50 [1] [nM] | solidsol [2] [µM] | Compound
1 | 12 | 135.9 | CC(C)(O)c1nc(-c2cccc(CNC(=O)c3cnc(-c4ccccn4)nc3)c2)no1 [Example 1, 2-Pyridin-2-yl-pyrimidine-5-carboxylic acid 3-[5-(1-hydroxy-1-methyl-ethyl)-1,2,4-oxadiazol-3-yl]-benzylamide]
2 | 11 | 854.9 | C[C@H](NC(=O)c1cnc(-c2ccccn2)nc1)c1cccc(-c2noc(C(C)(C)O)n2)c1 [Example 2, 2-Pyridin-2-yl-pyrimidine-5-carboxylic acid ((S)-1-{3-[5-(1-hydroxy-1-methyl-ethyl)-1,2,4-oxadiazol-3-yl]-phenyl}-ethyl)-amide]
3 | 26 | 29.4 | C[C@@H](NC(=O)c1cnc(-c2ccccn2)nc1)c1cccc(-c2noc(C(C)(C)O)n2)c1 [Example 3, 2-Pyridin-2-yl-pyrimidine-5-carboxylic acid ((R)-1-{3-[5-(1-hydroxy-1-methyl-ethyl)-1,2,4-oxadiazol-3-yl]-phenyl}-ethyl)-amide]
